Source: ChEMBL document CHEMBL5303573, “Mapping human microbiome drug metabolism by gut bacteria and their genes” (Nature, 2019)

Experiments:
[1] = The drug is tested on Bifidobacterium breve strain: DSM20213 for biotransformation. The drug concentrations were measured before and after a 12-h incubation by liquid-chromatography-coupled mass spectrometry (LC–MS); conditions: 2 µM
[2] = The drug is tested on Eggerthella lenta strain: ATCC25559 for biotransformation. The drug concentrations were measured before and after a 12-h incubation by liquid-chromatography-coupled mass spectrometry (LC–MS); conditions: 2 µM
[3] = The drug is tested on Bacteroides cellulosilyticus strain: DSM14838 for biotransformation. The drug concentrations were measured before and after a 12-h incubation by liquid-chromatography-coupled mass spectrometry (LC–MS); conditions: 2 µM
[4] = The drug is tested on Bacteroides fragilis strain: ATCC43859 for biotransformation. The drug concentrations were measured before and after a 12-h incubation by liquid-chromatography-coupled mass spectrometry (LC–MS); conditions: 2 µM
[5] = The drug is tested on Bacteroides sp. WH2 strain: WH2 for biotransformation. The drug concentrations were measured before and after a 12-h incubation by liquid-chromatography-coupled mass spectrometry (LC–MS); conditions: bacteroides sp. wh2, 12 h, 2 µM
[6] = The drug is tested on Bacteroides xylanisolvens strain: DSM18836 for biotransformation. The drug concentrations were measured before and after a 12-h incubation by liquid-chromatography-coupled mass spectrometry (LC–MS); conditions: 2 µM
[7] = The drug is tested on Odoribacter splanchnicus strain: fecal isolate for biotransformation. The drug concentrations were measured before and after a 12-h incubation by liquid-chromatography-coupled mass spectrometry (LC–MS); conditions: 2 µM
[8] = The drug is tested on Anaerotruncus colihominis strain: DSM17241 for biotransformation. The drug concentrations were measured before and after a 12-h incubation by liquid-chromatography-coupled mass spectrometry (LC–MS); conditions: 2 µM
[9] = The drug is tested on Clostridium asparagiforme strain: DSM15981 for biotransformation. The drug concentrations were measured before and after a 12-h incubation by liquid-chromatography-coupled mass spectrometry (LC–MS); type: ADME; design: dose 2 uM, timepoint 0 vs 12 hours; conditions: enterocloster asparagiformis, 2 µM
[10] = The drug is tested on Clostridium scindens strain: ATCC35704 for biotransformation. The drug concentrations were measured before and after a 12-h incubation by liquid-chromatography-coupled mass spectrometry (LC–MS); conditions: 2 µM
[11] = The drug is tested on Eubacterium hallii strain: DSM3353 for biotransformation. The drug concentrations were measured before and after a 12-h incubation by liquid-chromatography-coupled mass spectrometry (LC–MS); conditions: anaerobutyricum hallii, 2 µM
[12] = The drug is tested on Eubacterium rectale strain: ATCC33656 for biotransformation. The drug concentrations were measured before and after a 12-h incubation by liquid-chromatography-coupled mass spectrometry (LC–MS); conditions: agathobacter rectalis, 2 µM
[13] = The drug is tested on Eubacterium ventriosum strain: ATCC27560 for biotransformation. The drug concentrations were measured before and after a 12-h incubation by liquid-chromatography-coupled mass spectrometry (LC–MS); type: ADME; design: dose 2 uM, timepoint 0 vs 12 hours; conditions: 2 µM
[14] = The drug is tested on Ruminococcus lactaris strain: ATCC29176 for biotransformation. The drug concentrations were measured before and after a 12-h incubation by liquid-chromatography-coupled mass spectrometry (LC–MS); conditions: 2 µM
[15] = bacteroides eggerthii, 12 h, 2 µM
Description: The drug is tested on Bacteroides eggerthii strain: DSM20697 for biotransformation. The drug concentrations were measured before and after a 12-h incubation by liquid-chromatography-coupled mass spectrometry (LC–MS)

[16] = bacteroides stercoris, 12 h, 2 µM
Description: The drug is tested on Bacteroides stercoris strain: ATCC43183 for biotransformation. The drug concentrations were measured before and after a 12-h incubation by liquid-chromatography-coupled mass spectrometry (LC–MS)

[17] = enterocloster bolteae, 12 h, 2 µM
Description: The drug is tested on Clostridium bolteae strain: ATCCBAA-613 for biotransformation. The drug concentrations were measured before and after a 12-h incubation by liquid-chromatography-coupled mass spectrometry (LC–MS)

[18] = limosilactobacillus reuteri cf48-3a, 12 h, 2 µM
Description: The drug is tested on Lactobacillus reuteri CF48-3A strain: BEI HM-102 for biotransformation. The drug concentrations were measured before and after a 12-h incubation by liquid-chromatography-coupled mass spectrometry (LC–MS)

[19] = The drug is tested on Bacteroides fragilis strain: HMW615 for biotransformation. The drug concentrations were measured before and after a 12-h incubation by liquid-chromatography-coupled mass spectrometry (LC–MS); conditions: 2 µM
[20] = bifidobacterium adolescentis, 12 h, 2 µM
Description: The drug is tested on Bifidobacterium adolescentis strain: ATCC 15703 for biotransformation. The drug concentrations were measured before and after a 12-h incubation by liquid-chromatography-coupled mass spectrometry (LC–MS)

| Compound | Bacterial Biotransformation [1] | Bacterial Biotransformation [2] | Bacterial Biotransformation [3] | Bacterial Biotransformation [4] | Bacterial Biotransformation [5] | Bacterial Biotransformation [6] | Bacterial Biotransformation [7] | Bacterial Biotransformation [8] | Bacterial Biotransformation [9] | Bacterial Biotransformation [10] | Bacterial Biotransformation [11] | Bacterial Biotransformation [12] | Bacterial Biotransformation [13] | Bacterial Biotransformation [14] | Bacterial Biotransformation [15] | Bacterial Biotransformation [16] | Bacterial Biotransformation [17] | Bacterial Biotransformation [18] | Bacterial Biotransformation [19] | Bacterial Biotransformation [20] |
| --- | --- | --- | --- | --- | --- | --- | --- | --- | --- | --- | --- | --- | --- | --- | --- | --- | --- | --- | --- | --- |
| CC[C@H](C)C(=O)O[C@H]1CCC=C2C=C[C@H](C)[C@H](CC[C@@H]3C[C@@H](O)CC(=O)O3)[C@H]21 [MEVASTATIN] | Compound metabolized | Compound metabolized | Compound metabolized | Compound NOT metabolized | Compound metabolized | Compound metabolized | Compound metabolized | Compound metabolized | Compound metabolized | Compound metabolized | Compound metabolized | Compound metabolized | Compound metabolized | Compound metabolized | Compound metabolized | Compound metabolized | Compound metabolized | Compound metabolized |  |  |
| CN1CCC[C@@H]1CCO[C@](C)(c1ccccc1)c1ccc(Cl)cc1.O=C(O)/C=C/C(=O)O [CLEMASTINE FUMARATE] | Compound NOT metabolized | Compound NOT metabolized | Compound metabolized | Compound NOT metabolized |  | Compound metabolized | Compound metabolized |  | Compound NOT metabolized | Compound NOT metabolized | Compound NOT metabolized |  | Compound NOT metabolized | Compound NOT metabolized | Compound metabolized | Compound metabolized | Compound NOT metabolized | Compound NOT metabolized | Compound NOT metabolized |  |
| CC(C)C[C@H]1C(=O)N2CCC[C@H]2[C@]2(O)O[C@](NC(=O)[C@@H]3C=C4c5cccc6[nH]c(Br)c(c56)C[C@H]4N(C)C3)(C(C)C)C(=O)N12.CS(=O)(=O)O [BROMOCRIPTINE MESYLATE] | Compound metabolized | Compound metabolized | Compound metabolized |  | Compound metabolized | Compound metabolized | Compound metabolized | Compound metabolized | Compound metabolized | Compound metabolized | Compound metabolized | Compound metabolized | Compound metabolized | Compound metabolized | Compound metabolized | Compound metabolized | Compound metabolized | Compound metabolized | Compound metabolized | Compound metabolized |
| CC(C(=O)O)c1ccc2c(c1)Cc1cccnc1O2 (centres undefined) [PRANOPROFEN] | Compound metabolized | Compound NOT metabolized | Compound metabolized | Compound metabolized | Compound metabolized | Compound metabolized | Compound metabolized | Compound metabolized | Compound NOT metabolized | Compound NOT metabolized | Compound metabolized |  | Compound metabolized | Compound NOT metabolized | Compound metabolized | Compound metabolized | Compound metabolized |  | Compound metabolized |  |
| CC(C)(Oc1ccc(CCNC(=O)c2ccc(Cl)cc2)cc1)C(=O)O [BEZAFIBRATE] | Compound metabolized | Compound metabolized | Compound metabolized | Compound metabolized | Compound metabolized | Compound metabolized | Compound metabolized | Compound NOT metabolized | Compound NOT metabolized | Compound metabolized | Compound metabolized | Compound NOT metabolized | Compound metabolized | Compound NOT metabolized | Compound metabolized | Compound metabolized | Compound metabolized | Compound metabolized |  | Compound metabolized |
| CSc1ccc2c(c1)C(N1CCN(C)CC1)Cc1ccccc1S2.O=C(O)/C=C\C(=O)O (centres undefined) | Compound metabolized | Compound NOT metabolized | Compound NOT metabolized | Compound NOT metabolized | Compound NOT metabolized | Compound NOT metabolized | Compound NOT metabolized | Compound metabolized | Compound NOT metabolized | Compound metabolized | Compound NOT metabolized | Compound NOT metabolized | Compound NOT metabolized | Compound NOT metabolized | Compound NOT metabolized | Compound NOT metabolized | Compound NOT metabolized | Compound NOT metabolized |  | Compound NOT metabolized |
| CCCc1nc(C(C)(C)O)c(C(=O)OCc2oc(=O)oc2C)n1Cc1ccc(-c2ccccc2-c2nnn[nH]2)cc1 [OLMESARTAN MEDOXOMIL] | Compound metabolized | Compound metabolized | Compound metabolized | Compound metabolized |  | Compound metabolized | Compound metabolized | Compound metabolized | Compound metabolized | Compound metabolized | Compound metabolized | Compound metabolized | Compound metabolized | Compound metabolized |  | Compound metabolized | Compound metabolized | Compound metabolized |  | Compound NOT metabolized |
| CCN1CCCC1CNC(=O)c1cc(S(=O)(=O)CC)c(N)cc1OC (centres undefined) [AMISULPRIDE] | Compound NOT metabolized | Compound NOT metabolized | Compound NOT metabolized |  | Compound NOT metabolized | Compound NOT metabolized | Compound NOT metabolized | Compound NOT metabolized | Compound NOT metabolized | Compound NOT metabolized | Compound NOT metabolized | Compound NOT metabolized | Compound NOT metabolized | Compound NOT metabolized | Compound NOT metabolized | Compound NOT metabolized | Compound NOT metabolized | Compound NOT metabolized | Compound NOT metabolized | Compound NOT metabolized |
